Assays:
[1] = Study 2: pulmonary delivery by nebulizer for a defined time (10 min), plasma propofol and sedation; format: in vivo; details: three male beagle dogs, 250 mg/mL aqueous solution nebulized for 10 min
Description: (§1) A second study was conducted to assess the conversion of O-phosphonooxymethyl propofol disodium salt to the pharmacologically active drug propofol following pulmonary delivery. The study design was essentially the same as Study 1 above except that the O-phosphonooxymethyl propofol disodium salt solution was nebulized for a defined period of time (10 min) instead of to complete nebulization of the solution. Three male beagle dogs was fasted overnight prior to the study. O-phosphonooxymethyl propofol disodium salt was dissolved in water (250 mg/mL). The O-phosphonooxymethyl propofol disodium salt solution was delivered for 10 min to the dog via inhalation through a nebulizer connected to a facemask that was placed over the dog's muzzle. The actual dose of O-phosphonooxymethyl propofol disodium salt delivered to the dog is less than the dose nebulized due to vapor loss during exhalation. Two mL blood samples were collected via a catheter placed in the cephalic vein prior to the study. Samples were collected for 1.5 hours post-dose at 5, 10, 20, 30, 40, 50, 60 and 90 minutes after initiation of delivery by inhalation. The concentration of propofol in the blood samples was determined using HPLC with fluorescence detection.
These finding are significant, as it is known that humans are more susceptible to the effects of propofol than dogs. […]

[2] = Study 1: pulmonary delivery by nebulizer and facemask, plasma propofol and sedation; format: in vivo; details: one male beagle dog, inhalation of 3 mL of 250 mg/mL aqueous solution over approximately 10 min
Description: as §1, with “A preliminary” for “A second”, “delivery. A” for “delivery. The study design was essentially the same as Study 1 above except that the O-phosphonooxymethyl propofol disodium salt solution was nebulized for a defined period of time (10 min) instead of to complete nebulization of the solution. Three”, “beagle dog” for “beagle dogs”, “mg/mL). 3-mL of the” for “mg/mL). The”, “delivered over approximately” for “delivered for”
These finding are significant, as it is known that humans are more susceptible to the affects of propofol than dogs. Therefore, the onset of action would be very rapid in humans.

[3] = sample at 5 minutes post dose initiation, HPLC with fluorescence detection

Compound: CC(C)c1cccc(C(C)C)c1OCOP(=O)([O-])[O-].[Na+].[Na+] [O-phosphonooxymethyl propofol disodium salt]
- signs of sedation, time after the completion of the inhaled dose [1]: 10 to 15 min
- concentration of propofol in the plasma, first blood sample [1, 3]: significant concentration of propofol in the plasma
- signs of sedation, time after the completion of the inhaled dose [2]: approximately 15 minutes
- concentration of propofol in the plasma, first blood sample [2, 3]: significant concentration of propofol in the plasma

Reference: patent publication US20090098209A1, “PHARMACEUTICAL CO[…]-SOLUBLE DERIVATIVES OF PROPOFOL AND METHODS OF ADMINISTERING SAME VIA PULMONARY ADMINISTRATION” (UNIVERSITY OF KANSAS, priority 2007, published 2009)
